Measurements taken from patent publication US5401853A, “Thiadiazole derivatives for the treatment of depressive states” (Laboratorio Farmaceutico C.T. S.r.l., priority 1992, dated 1995).
Where two headings read alike, the source gives them in different places.

Tests used:
mice = test: Dispair test (Porsolt) in mice; type: in vivo, Swiss strain male mice (CD-1 Charles River); conditions: for immobility duration: 1 hour before test; for minimal effective dose: Dispair test, i.p., read-out: active dosage
Procedure: This behaviouristic test conceived by Porsolt (1977 --Nature, 266 730-732 is generally utilized to evaluate the antidepressant activity.
Swiss strain male mice of average weight of 30 g (CD -1 Charles River) casually assigned to the different treatment groups are used.
The method consists in placing the animal in a plexiglas cylinder 25 cm high and with a diameter of 9 cm filled with water at 24° C. up to a level of 6 cm.
The test lasts 6 minutes and the time in which the animal lets itself float without reacting is measured starting from the 2nd minute (immobility duration).
The animals ape treated by intraperitoneal route (injection volume 10 ml/kg) 1 hour before the test.
The evaluation is carried out in blind. The statistical analysis of the results is carried out where it is possible by means of the T-Student test, otherwise the non parametric test of Mann Whitney is used.

[1] = Acute toxicity (LD50) in mice; conditions: mouse, in vivo, read-out: LD50 (DL50)
rats = test: Social Interaction test in rats (anxiolythic activity); type: in vivo, Sprague-Dawley male rats; conditions: for Social Interaction increase (%): 1 hour before test, vs controls
Text: The behaviouristic Social Interaction test found by FILE was used. (Animal models of psychiatric disorders, vol. 1 Karger, Basel, pp 151-166).
It consists in an experimental procedure permitting to evaluate the influence of the pharmacological treatment on the spontaneous behaviour of the rat, by means of the social component which in this animal is particularly accentuated.
Sprague-Dawley male rats weighing about 250 g are used. After a normal stabling period (2 weeks), the animal are isolated in smaller cages (267×207×140 mm surface 410 cm^2) for a period of about 5 days.
Then the rats are gathered into couples, avoiding that weight difference between the two animals overcomes 10 g and that the couple components had not previously stabled together.
The couple thus gathered are assigned to the respective treatment group.
Diazepam was utilized as the positive control drug: 1,25 mg/kg are intraperitoneally administered 30' before carrying out the test.
The compounds to be tested are administered 1 hour before carrying out the test.
The box utilized [55×55×30 cm (height)] for the animal observation is white, completely washable and provided with a floor split up into 25 squares.
A 100 Watt lamp is placed upon the box at 50 cm from the floor. The test is realized in a remote room whose only light source is represented by the lamp lighting the box.
The evaluation is carried out in blind. The animals are observed indirectly, by means of a mirror suitably placed.
Evaluated parameters: time passed in Social Interaction (sniffing pursuit, grooming, boxing etc.).
The box is systematically cleaned up after every test.
The results are expressed as a function of a percentage increase of Social Interaction of the treated animals in comparison with the controls.

Solubility in solvents = type: physicochemical
[2] = Mus musculus, ip, 1 h, 10 mg/kg i.p., vs control (dosage 0), read-out: immobility duration < % (decrease)
[3] = Mus musculus, ip, 1 h, 0.25 mg/kg i.p., vs control (dosage 0), read-out: immobility duration < % (decrease)
[4] = Mus musculus, ip, 1 h, 0.5 mg/kg i.p., vs control (dosage 0), read-out: immobility duration < % (decrease)
[5] = Mus musculus, ip, 1 h, 1 mg/kg i.p., vs control (dosage 0), read-out: immobility duration < % (decrease)
[6] = Mus musculus, ip, 1 h, 0.1 mg/kg i.p., vs control (dosage 0), read-out: immobility duration < % (decrease)

Compound: Nc1nnc(SCc2ccccc2)s1 [B16, 2-amino-5-benzylmercapto-1,3,4-thiadiazole]
- immobility duration (mice; 1 mg/kg i.p.): 197 ± 22
- immobility duration (mice; 5 mg/kg i.p.): 171 ± 23
- immobility duration (mice; 10 mg/kg i.p.): 132 ± 45
- immobility duration (mice; 15 mg/kg i.p.): 186 ± 14
- immobility duration (mice; 20 mg/kg i.p.): 199 ± 16
- inhibition in vivo at 5 mg/kg (mice; Mus musculus, ip, 1 h, 5 mg/kg i.p., vs control (dosage 0), read-out: immobility duration < % (decrease)): 16%
- inhibition in vivo at 10 mg/kg (mice; [2]): 35%
- inhibition in vivo at 15 mg/kg (mice; Mus musculus, ip, 1 h, 15 mg/kg i.p., vs control (dosage 0), read-out: immobility duration < % (decrease)): 8%
- minimal effective dose (mice; Mus musculus, ip, 1 h): 5 to 10 mg/kg
- LD50 ([1]; ip): > 600 mg/kg
- LD50 ([1]; po, per os): > 600 mg/kg
- Social Interaction increase (%) (rats; 0.5 mg/kg): 40%
- Social Interaction increase (%) (rats; 1 mg/kg): 67%
- Social Interaction increase (%) (rats; 2.5 mg/kg): 94%
- Social Interaction increase (%) (rats; 5 mg/kg): 51%
- shape of dose-response curve, Social Interaction (rats; 0.5-5 mg/kg): Gaussian shape
- solubility in alcohols, chloroform, ethyl acetate, acetone (Solubility in solvents): soluble
- solubility in ether and water (Solubility in solvents): insoluble

Compound: CC(=O)Nc1nnc(SCc2ccccc2)s1 [B17, 2-acetylamino-5-benzylmercapto-1,3,4-thiadiazole]
- immobility duration (mice; 0.03 mg/kg i.p.): 198 ± 16
- immobility duration (mice; 0.06 mg/kg i.p.): 159 ± 38
- immobility duration (mice; 0.125 mg/kg i.p.): 167 ± 22
- immobility duration (mice; 0.25 mg/kg i.p.): 183 ± 20
- immobility duration (mice; 0.5 mg/kg i.p.): 182 ± 25
- immobility duration (mice; 1 mg/kg i.p.): 187 ± 36
- inhibition in vivo at 0.06 mg/kg (mice; Mus musculus, ip, 1 h, 0.06 mg/kg i.p., vs control (dosage 0), read-out: immobility duration < % (decrease)): 22%
- inhibition in vivo at 0.125 mg/kg (mice; Mus musculus, ip, 1 h, 0.125 mg/kg i.p., vs control (dosage 0), read-out: immobility duration < % (decrease)): 17%
- inhibition in vivo at 0.25 mg/kg (mice; [3]): 10%
- inhibition in vivo at 0.5 mg/kg (mice; [4]): 10%
- minimal effective dose (mice; Mus musculus, ip, 1 h): ~0.5 mg/kg
- LD50 ([1]; ip): > 1000 mg/kg
- LD50 ([1]; po, per os): > 1000 mg/kg

Compound: CSc1nnc(N)s1 [B21]
- immobility duration (mice; 20 mg/kg i.p.): 187 ± 13
- immobility duration (mice; 25 mg/kg i.p.): 175 ± 31
- immobility duration (mice; 50 mg/kg i.p.): 161 ± 26
- immobility duration (mice; 60 mg/kg i.p.): 176 ± 21
- immobility duration (mice; 75 mg/kg i.p.): 170 ± 39
- immobility duration (mice; 100 mg/kg i.p.): 187 ± 25
- inhibition in vivo at 20 mg/kg (mice; Mus musculus, ip, 1 h, 20 mg/kg i.p., vs control (dosage 0), read-out: immobility duration < % (decrease)): 8%
- inhibition in vivo at 25 mg/kg (mice; Mus musculus, ip, 1 h, 25 mg/kg i.p., vs control (dosage 0), read-out: immobility duration < % (decrease)): 16%
- inhibition in vivo at 50 mg/kg (mice; Mus musculus, ip, 1 h, 50 mg/kg i.p., vs control (dosage 0), read-out: immobility duration < % (decrease)): 23%
- inhibition in vivo at 60 mg/kg (mice; Mus musculus, ip, 1 h, 60 mg/kg i.p., vs control (dosage 0), read-out: immobility duration < % (decrease)): 16%
- inhibition in vivo at 75 mg/kg (mice; Mus musculus, ip, 1 h, 75 mg/kg i.p., vs control (dosage 0), read-out: immobility duration < % (decrease)): 19%
- inhibition in vivo at 100 mg/kg (mice; Mus musculus, ip, 1 h, 100 mg/kg i.p., vs control (dosage 0), read-out: immobility duration < % (decrease)): 11%
- LD50 ([1]; ip): > 1000 mg/kg

Compound: CC(C)Sc1nnc(N)s1 [B35]
- immobility duration (mice; 10 mg/kg i.p.): 165 ± 42
- immobility duration (mice; 15 mg/kg i.p.): 194 ± 14
- immobility duration (mice; 20 mg/kg i.p.): 185 ± 11
- inhibition in vivo at 10 mg/kg (mice; [2]): 17%
- minimal effective dose (mice; Mus musculus, ip, 1 h): 10 mg/kg

Compound: CC(=O)Nc1nnc(SC(C)C)s1 [B36, 2-N-acethyl-5-isopropylmercapto-1,3,4thiadiazole]
- immobility duration (mice; 0.5 mg/kg i.p.): 178 ± 33
- immobility duration (mice; 1 mg/kg i.p.): 159 ± 23
- immobility duration (mice; 2.5 mg/kg i.p.): 188 ± 16
- immobility duration (mice; 5 mg/kg i.p.): 196 ± 22
- immobility duration (mice; 12.5 mg/kg i.p.): 199 ± 15
- inhibition in vivo at 1 mg/kg (mice; [5]): 19%
- minimal effective dose (mice; Mus musculus, ip, 1 h): 1 mg/kg

Compound: CC(=O)N(C)c1nnc(SC(C)C)s1 [B39, 2-(N-methyl-N-acethyl)-amino-5-isopropylmercapto-1,3,4-thiadiazole]
- immobility duration (mice; 0.125 mg/kg i.p.): 180 ± 19
- immobility duration (mice; 0.25 mg/kg i.p.): 155 ± 36
- immobility duration (mice; 0.5 mg/kg i.p.): 169 ± 30
- immobility duration (mice; 1 mg/kg i.p.): 161 ± 14
- immobility duration (mice; 5 mg/kg i.p.): 176 ± 28
- immobility duration (mice; 10 mg/kg i.p.): 204 ± 18
- inhibition in vivo at 0.25 mg/kg (mice; [3]): 18%
- inhibition in vivo at 0.5 mg/kg (mice; [4]): 10%
- inhibition in vivo at 1 mg/kg (mice; [5]): 14%

Compound: CC(=O)Nc1nnc(SCc2ccc([N+](=O)[O-])cc2)s1 [B45]
- immobility duration (mice; 0.1 mg/kg i.p.): 182 ± 22
- immobility duration (mice; 0.25 mg/kg i.p.): 167 ± 26
- immobility duration (mice; 0.5 mg/kg i.p.): 166 ± 18
- immobility duration (mice; 1 mg/kg i.p.): 183 ± 17
- inhibition in vivo at 0.25 mg/kg (mice; [3]): 16%
- inhibition in vivo at 0.5 mg/kg (mice; [4]): 16%

Compound: COc1ccc(CSc2nnc(N)s2)cc1 [B51]
- immobility duration (mice; 0.01 mg/kg i.p.): 200 ± 19
- immobility duration (mice; 0.03 mg/kg i.p.): 164 ± 29
- immobility duration (mice; 0.1 mg/kg i.p.): 166 ± 13
- immobility duration (mice; 0.3 mg/kg i.p.): 158 ± 24
- immobility duration (mice; 1.25 mg/kg i.p.): 174 ± 40
- immobility duration (mice; 5 mg/kg i.p.): 189 ± 15
- inhibition in vivo at 0.03 mg/kg (mice; Mus musculus, ip, 1 h, 0.03 mg/kg i.p., vs control (dosage 0), read-out: immobility duration < % (decrease)): 13%
- inhibition in vivo at 0.1 mg/kg (mice; [6]): 12%
- inhibition in vivo at 0.3 mg/kg (mice; Mus musculus, ip, 1 h, 0.3 mg/kg i.p., vs control (dosage 0), read-out: immobility duration < % (decrease)): 16%
- minimal effective dose (mice; Mus musculus, ip, 1 h): ~0.5 mg/kg

Compound: COc1ccc(CSc2nnc(NC(C)=O)s2)cc1 [B53]
- immobility duration (mice; 0.1 mg/kg i.p.): 182 ± 16
- immobility duration (mice; 0.5 mg/kg i.p.): 165 ± 25
- immobility duration (mice; 1 mg/kg i.p.): 151 ± 29
- immobility duration (mice; 2 mg/kg i.p.): 195 ± 31
- inhibition in vivo at 0.5 mg/kg (mice; [4]): 10%
- inhibition in vivo at 1 mg/kg (mice; [5]): 15%

Compound: COc1cccc(CSc2nnc(N)s2)c1 [B63]
- immobility duration (mice; 0.05 mg/kg i.p.): 187 ± 34
- immobility duration (mice; 0.1 mg/kg i.p.): 171 ± 26
- immobility duration (mice; 0.25 mg/kg i.p.): 159 ± 22
- immobility duration (mice; 0.5 mg/kg i.p.): 166 ± 25
- immobility duration (mice; 1 mg/kg i.p.): 174 ± 30
- immobility duration (mice; 10 mg/kg i.p.): 187 ± 26
- inhibition in vivo at 0.1 mg/kg (mice; [6]): 15%
- inhibition in vivo at 0.25 mg/kg (mice; [3]): 21%
- inhibition in vivo at 0.5 mg/kg (mice; [4]): 18%
- inhibition in vivo at 1 mg/kg (mice; [5]): 14%
- Social Interaction increase (%) (rats; 0.25 mg/kg): 14%
- Social Interaction increase (%) (rats; 0.5 mg/kg): 40%
- Social Interaction increase (%) (rats; 1 mg/kg): 70%
- Social Interaction increase (%) (rats; 2.5 mg/kg): 73%

Compound: CN(C)CCCN1c2ccccc2CCc2ccccc21 [imipramine, reference compound]
- minimal effective dose (mice; Mus musculus, ip, 1 h): 20 mg/kg
